Key:
[1] = test system: iCell Hepatocytes
[2] = test system: CYP1A2; assay: P450-GLO CYP1A2 assay, drug-induced CYP activity in 3-D microtissue of iCell Hepatocytes; details: day 6 spheroids, 20% GELTREX, about 0.1 to 100 μM for about 24 hours

induction of CYP1A2 activity [2]	Compound	hepatotoxicity response [1]
	O=C(O)Cc1ccccc1Nc1c(Cl)cccc1Cl [Diclofenac]	Increased sensitivity
about 2.5 fold	COc1ccc2[nH]c([S+]([O-])Cc3ncc(C)c(OC)c3C)nc2c1 (stereo not drawn) [Omeprazole]	
	Cc1ccc(C(=O)c2cc(O)c(O)c([N+](=O)[O-])c2)cc1 [Tolcapone]	Increased sensitivity

Reference: patent US20180305669A1, “MICROTISSUE FORMATION USING STEM CELL-DERIVED HUMAN HEPATOCYTES” (FUJIFILM Cellular Dynamics, Inc., priority 2015, published 2018)
